# Measurements published in patent US8063065B2, “Azaindazole compounds as CCR1 receptor antagonists” (Boehringer Ingelheim International GmbH, priority 2008, dated 2011).
# Target: T1, CCR1 (Homo sapiens, UniProt P32246)
# T1 sequence (P32246 1-355): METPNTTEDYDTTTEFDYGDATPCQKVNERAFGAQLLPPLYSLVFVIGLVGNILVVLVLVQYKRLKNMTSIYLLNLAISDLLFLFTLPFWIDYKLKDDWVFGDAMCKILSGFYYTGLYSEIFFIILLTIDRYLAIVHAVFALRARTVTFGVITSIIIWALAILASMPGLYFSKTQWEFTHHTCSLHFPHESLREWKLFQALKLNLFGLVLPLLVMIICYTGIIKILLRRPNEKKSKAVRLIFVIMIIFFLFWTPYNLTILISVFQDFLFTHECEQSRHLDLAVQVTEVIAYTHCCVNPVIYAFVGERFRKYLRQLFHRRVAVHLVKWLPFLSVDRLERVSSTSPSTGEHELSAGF
# Experiment: Method A: calcium flux in CCR1 transfected cells (Fluo-4 NW, FLIPR TETRA), block of the CCR1/MIP-1α interaction
# Assay type: cell-based
# Details: Method A: Fluo-4 NW, MIP-1 alpha at EC80
# Procedure: Compounds are assessed for the ability to block the interaction of CCR1 and MIP-1α in a functional cellular assay measuring calcium flux in CCR1 transfected cells.
# Method A: Non-adherent cells purchased from Chemicon Corporation (HTS005C), stably expressing recombinant CCR1 and G-alpha-16 are grown in RPMI 1640 medium (Mediatech 10-080-CM) supplemented with 10% heat-inactivated FBS, 0.4 mg/mL Geneticin and penicillin/streptomycin. On the day of the assay, the cells are transferred to a beaker and dye-loaded in bulk using a Fluo-4 NW Calcium Assay Kit with probenecid (Invitrogen F36205) at 0.8E6 cells/mL for 1 hour at room temperature. After 1 hour, they are seeded in a 384-well tissue culture-treated plate at a density of 20,000 cells/well. Appropriately diluted test compound is added to the well to achieve a top concentration of 3,000 nM (diluted 4-fold with 10 doses total). The final concentration of DMSO is 1%. The buffer is HBSS (Invitrogen 14025) with 20 mM HEPES at pH 7.4. The cells are allowed to incubate 1 hour in the dark at room temperature. The plates are transferred to the FLIPR TETRA where MIP-1 alpha in 1% BSA is added at the EC80 final concentration. Wells+/−MIP-1 alpha containing diluted DMSO instead of compound serve as the controls. Intracellular calcium flux is recorded on the FLIPR TETRA, using excitation at 470/495 nm and emission at 515/575 nm. Data are analyzed using Activity Base software.
row,IC50 [nM],Structure (SMILES)
1,0.6,"CC[C@H](NC(=O)c1cncc2c1cnn2-c1ccc(Cl)cc1)c1cncc(Br)c1 [1-(4-Chlorophenyl)-1H-pyrazolo[3,4-c]pyridine-4-carboxylic acid [(S)-1-(5-bromopyridin-3-yl)-propyl]-amide]"
2,5,"C[C@H](NC(=O)c1cncc2c1cnn2-c1ccc(F)cc1)c1cccc(Br)n1 [1-(4-Fluorophenyl)-1H-pyrazolo[3,4-c]pyridine-4-carboxylic acid [(S)-1-(6-bromopyridin-2-yl)-ethyl]-amide]"

# Target: T1, CCR1
# Experiment: Method B: calcium flux in CCR1 transfected cells (Calcium 4 dye, […] FDSS6000), block of the CCR1/MIP-1α interaction
# Assay type: cell-based
# Details: Method B: Calcium 4 dye, MIP-1alpha at EC80
# How it was run: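 Non-adherent cells stably expressing CCR1 and G-alpha-16 were loaded with Calcium 4 dye plus probenecid for 1 h at room temperature. Compounds (top 3,000 nM, 4-fold, 10 doses, 1% DMSO) in HBSS/20 mM HEPES pH 7.4 were incubated 30 min at 37 C, then 30 min at room temperature. MIP-1α at EC80 was added and calcium flux read on FDSS6000.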
row,IC50 [nM],Structure (SMILES)
1,3,"CC[C@H](NC(=O)c1cncc2c1cnn2-c1ccc(F)cc1)c1ccn(S(C)(=O)=O)n1 [1-(4-Fluorophenyl)-1H-pyrazolo[3,4-c]pyridine-4-carboxylic acid [(S)-1-(1-methanesulfonyl-1H-pyrazol-3-yl)-propyl]-amide]"
2,12,"CS(=O)(=O)c1cc([C@H](CCO)NC(=O)c2cncc3c2cnn3-c2ccc(F)cc2)ccn1 [1-(4-Fluorophenyl)-1H-pyrazolo[3,4-c]pyridine-4-carboxylic acid [(S)-3-hydroxy-1-(2-methanesulfonyl-pyridin-4-yl)-propyl]-amide]"
3,17,"CS(=O)(=O)c1cc(CNC(=O)c2cncc3c2cnn3-c2ccc(F)cc2)cc(=O)[nH]1 [1-(4-Fluorophenyl)-1H-pyrazolo[3,4-c]pyridine-4-carboxylic acid (6-methanesulfonyl-2-oxo-1,2-dihydropyridin-4-ylmethyl)-amide]"
4,7,"CC[C@@H](NC(=O)c1cncc2c1cnn2-c1ccc(F)cc1)c1cc(S(C)(=O)=O)cn1C [1-(4-Fluorophenyl)-1H-pyrazolo[3,4-c]pyridine-4-carboxylic acid [(R)-1-(4-methanesulfonyl-1-methyl-1H-pyrrol-2-yl)-propyl]-amide]"
5,0.9,"CC[C@H](NC(=O)c1cncc2c1cnn2-c1ccc(F)cc1)c1ccnc(C)c1 [1-(4-Fluorophenyl)-1H-pyrazolo[3,4-c]pyridine-4-carboxylic acid [(S)-1-(2-methyl-pyridin-4-yl)-propyl]-amide]"
6,4,"CCC(NC(=O)c1cncc2c1cnn2-c1ccc(F)cc1)C1CCN(C(=O)OC(C)(C)C)CC1 (stereo not shown) [4-(1-{[1-(4-Fluorophenyl)-1H-pyrazolo[3,4-c]pyridine-4-carbonyl]-amino}-propyl)-piperidine-1-carboxylic acid tert-butyl ester]"
7,0.4,"CC[C@H](NC(=O)c1cncc2c1cnn2-c1ccc(F)cc1)c1cccc(Cl)c1 [1-(4-Fluorophenyl)-1H-pyrazolo[3,4-c]pyridine-4-carboxylic acid [(S)-1-(3-chlorophenyl)-propyl]-amide]"
8,10,"CC[C@H](NC(=O)c1cncc2c1cnn2-c1ccc(F)cc1)[C@@H]1CCN(S(C)(=O)=O)[C@@H](C(N)=O)C1 [1-(4-Fluorophenyl)-1H-pyrazolo[3,4-c]pyridine-4-carboxylic acid [(S)-1-((2R,4R)-2-carbamoyl-1-methanesulfonyl-piperidin-4-yl)-propyl]-amide]"
9,0.6,"CC[C@H](NC(=O)c1cncc2c1cnn2-c1ccc(F)cc1)c1ccc(Br)s1 [1-(4-Fluorophenyl)-1H-pyrazolo[3,4-c]pyridine-4-carboxylic acid [(S)-1-(5-bromo-thiophen-2-yl)-propyl]-amide]"
10,4,"CCOC(=O)CS(=O)(=O)c1cc(CNC(=O)c2cncc3c2cnn3-c2ccc(F)cc2)ccn1 [[4-({[1-(4-Fluorophenyl)-1H-pyrazolo[3,4-c]pyridine-4-carbonyl]-amino}-methyl)-pyridine-2-sulfonyl]-acetic acid ethyl ester]"
11,36,"CCC(NC(=O)c1cncc2c1cnn2-c1ccc(F)cc1)c1nc(C(N)=O)co1 (stereo not shown) [1-(4-Fluorophenyl)-1H-pyrazolo[3,4-c]pyridine-4-carboxylic acid [1-(4-carbamoyl-oxazol-2-yl)-propyl]-amide]"
12,3,"C[C@H](NC(=O)c1cncc2c1cnn2-c1ccc(F)cc1)c1ccnc(S(N)(=O)=O)c1 [1-(4-Fluorophenyl)-1H-pyrazolo[3,4-c]pyridine-4-carboxylic acid [(S)-1-(2-sulfamoyl-pyridin-4-yl)-ethyl]-amide]"
13,15,"C[C@H](NC(=O)c1cncc2c1cnn2-c1ccc(F)cc1)c1cccc(S(N)(=O)=O)n1 [1-(4-Fluorophenyl)-1H-pyrazolo[3,4-c]pyridine-4-carboxylic acid [(S)-1-(6-sulfamoyl-pyridin-2-yl)-ethyl]-amide]"
14,6,"CSc1ncc([C@H](C)NC(=O)c2cncc3c2cnn3-c2ccc(F)cc2)o1 [1-(4-Fluorophenyl)-1H-pyrazolo[3,4-c]pyridine-4-carboxylic acid [(S)-1-(2-methylsulfanyl-oxazol-5-yl)-ethyl]-amide]"
15,13,"CC[C@H](NC(=O)c1cncc2c1cnn2-c1ccc(F)cc1)c1ccnc(N2CCC(S(C)(=O)=O)CC2)c1 [1-(4-Fluorophenyl)-1H-pyrazolo[3,4-c]pyridine-4-carboxylic acid [(S)-1-(4-methanesulfonyl-3,4,5,6-tetrahydro-2H-[1,2′]bipyridinyl-4′-yl)-propyl]-amide]"
16,5,"CS(=O)(=O)c1ccc(CNC(=O)c2cncc3c2cnn3-c2ccc(F)cc2)s1 [1-(4-Fluorophenyl)-1H-pyrazolo[3,4-c]pyridine-4-carboxylic acid (5-methanesulfonyl-thiophen-2-ylmethyl)-amide]"
17,1,"COC[C@H](NC(=O)c1cncc2c1cnn2-c1ccc(F)cc1)c1ccnc(S(C)(=O)=O)c1 [1-(4-Fluorophenyl)-1H-pyrazolo[3,4-c]pyridine-4-carboxylic acid [(R)-1-(2-methanesulfonyl-pyridin-4-yl)-2-methoxy-ethyl]-amide]"
18,0.3,"CC[C@H](NC(=O)c1cncc2c1cnn2-c1ccc(F)cc1)c1nc(S(C)(=O)=O)cs1 [1-(4-Fluorophenyl)-1H-pyrazolo[3,4-c]pyridine-4-carboxylic acid [(S)-1-(4-methanesulfonyl-thiazol-2-yl)-propyl]-amide]"
19,6,"CC[C@H](NC(=O)c1cncc2c1cnn2-c1ccc(F)cc1)c1ccc(OC)c(S(C)(=O)=O)c1 [1-(4-Fluorophenyl)-1H-pyrazolo[3,4-c]pyridine-4-carboxylic acid [(S)-1-(3-methanesulfonyl-4-methoxy-phenyl)-propyl]-amide]"
20,0.7,"CC[C@H](NC(=O)c1cncc2c1cnn2-c1ccc(F)cc1)c1ccnc(N2CCOCC2)c1 [1-(4-Fluorophenyl)-1H-pyrazolo[3,4-c]pyridine-4-carboxylic acid [(S)-1-(2-morpholin-4-yl-pyridin-4-yl)-propyl]-amide]"
21,17,"CS(=O)(=O)c1ncc(CNC(=O)c2cncc3c2cnn3-c2ccc(F)cc2)s1 [1-(4-Fluorophenyl)-1H-pyrazolo[3,4-c]pyridine-4-carboxylic acid (2-methanesulfonyl-thiazol-5-ylmethyl)-amide]"
22,0.3,"CC[C@H](NC(=O)c1cncc2c1cnn2-c1ccc(F)cc1)c1cc(S(C)(=O)=O)[nH]c(=O)c1 [1-(4-Fluorophenyl)-1H-pyrazolo[3,4-c]pyridine-4-carboxylic acid [(S)-1-(6-methanesulfonyl-2-oxo-1,2-dihydropyridin-4-yl)-propyl]-amide]"
23,5,"Cc1cc(CNC(=O)c2cncc3c2cnn3-c2ccc(F)cc2)cc(S(C)(=O)=O)n1 [1-(4-Fluorophenyl)-1H-pyrazolo[3,4-c]pyridine-4-carboxylic acid (2-methanesulfonyl-6-methyl-pyridin-4-ylmethyl)-amide]"
24,35,"COC(=O)CCS(=O)(=O)c1cccc([C@H](C)NC(=O)c2cncc3c2cnn3-c2ccc(F)cc2)n1 [3-[6-((S)-1-{[1-(4-Fluorophenyl)-1H-pyrazolo[3,4-c]pyridine-4-carbonyl]-amino}-ethyl)-pyridine-2-sulfonyl]-propionic acid methyl ester]"
25,0.3,"CC[C@H](NC(=O)c1cncc2c1cnn2-c1ccc(F)cc1)c1cc(Cl)nc(S(C)(=O)=O)c1 [1-(4-Fluorophenyl)-1H-pyrazolo[3,4-c]pyridine-4-carboxylic acid [(S)-1-(2-chloro-6-methanesulfonyl-pyridin-4-yl)-propyl]-amide]"
26,19,"C[C@H](NC(=O)c1cncc2c1cnn2-c1ccc(F)cc1)c1cnc(S(C)(=O)=O)o1 [1-(4-Fluorophenyl)-1H-pyrazolo[3,4-c]pyridine-4-carboxylic acid [(S)-1-(2-methanesulfonyl-oxazol-5-yl)-ethyl]-amide]"
